Assay results taken from EPA's ToxValDB 9.5 (doi:10.2903/j.efsa.2010.1671).

Experiments:
Rattus norvegicus = settings: for NOAEL: inhalation
Anas platyrhynchos = settings: short-term; oral; feed; mortality
Colinus virginianus = settings: acute, oral, mortality
Coturnix japonica = settings: reproduction developmental
Leuciscus idus = settings: acute; duration: 96 hours; mortality
Macromiidae = settings: acute; duration: 72 hours; biomass
[1] = chronic, duration: 2 years, no effects
[2] = reproduction developmental, mortality
[3] = subchronic, duration: 90 days, no effects

Compound: P [Phosphine]
- NOAEL (Rattus norvegicus; [1]): 1.1 mg/kg-day
- NOAEL (Rattus norvegicus; [2]): 1.9 mg/kg-day
- NOAEL (Rattus norvegicus; [3]): 1.1 mg/kg-day

Compound: [PH]=[Zn].[PH]=[Zn].[Zn] [Zinc phosphide (Zn3P2)]
- LC50 (Anas platyrhynchos): 2880 mg/kg
- LC50 (Colinus virginianus; diet): 468 mg/kg
- LD50 (Colinus virginianus): 12.9 mg/kg-day
- NOEL (Coturnix japonica; F): 0.99 mg/kg-day
- NOEL (Coturnix japonica; M): 1.2 mg/kg-day
- LC50 (Leuciscus idus): > 21.7 mg/L
- NOEC (Macromiidae): 0.00323 mg/L
- LD50 (Rattus norvegicus; acute, oral, mortality): 37 mg/kg-day
- NOAEL (Rattus norvegicus; [1]): 1.1 mg/kg-day
- NOAEL (Rattus norvegicus; [2]): 1.9 mg/kg-day
- NOAEL (Rattus norvegicus; [3]): 1.1 mg/kg-day
- LOEC (Rattus norvegicus; subchronic, duration: 90 days, oral): 3.5 mg/kg-day
